Laboratory results published in patent US20240279205A1, “NOVEL BENZIMIDAZOLE DERIVATIVE” (Carna Biosciences, Inc., priority 2020, published 2024).
Values belong to the compound of their own block, whether it stands above or below them.

Columns and labels:
human STING (hSTING) = target: T1, human STING (hSTING) (Homo sapiens, UniProt Q86WV6); assay: Inhibition test of intracellular human STING (hSTING) pathway using SEAP reporter cells (HEK-Blue ISG), stimulation with Compound 3; format: cell-based; parameters: hSTING inhibitory activity: scale not given here; settings: Compound 3 10 nM stimulation, 21 hours
T1 construct: host or cells: HEK-Blue ISG cells (HEK293-derived SEAP reporter line)
T1 sequence (Q86WV6 whole entry H232R): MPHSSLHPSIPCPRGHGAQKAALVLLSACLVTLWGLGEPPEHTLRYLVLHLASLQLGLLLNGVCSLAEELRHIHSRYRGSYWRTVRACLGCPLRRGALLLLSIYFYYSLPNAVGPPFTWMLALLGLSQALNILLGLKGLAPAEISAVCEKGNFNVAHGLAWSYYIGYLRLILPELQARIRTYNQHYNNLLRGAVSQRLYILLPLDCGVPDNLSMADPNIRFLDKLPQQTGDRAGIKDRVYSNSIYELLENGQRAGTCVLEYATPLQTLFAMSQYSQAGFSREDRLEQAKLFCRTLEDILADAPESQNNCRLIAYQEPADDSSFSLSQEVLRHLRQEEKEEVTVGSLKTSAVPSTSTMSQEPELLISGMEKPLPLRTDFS
In short: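 HEK-Blue ISG cells with IRF-inducible SEAP reporter, pretreated 1 h with compound (final 0.1 to 10 μM), then stimulated with Compound 3 (final 10 nM) for 21 h at 37° C. Supernatant SEAP measured colorimetrically; IC50 from log-concentration regression, normalized to stimulated (100%) and unstimulated (0%) controls.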

[1] = system: STING activation (IFN-β production in THP-1 cells); assay: Human IFN-β production inhibition test by cGAMP stimulation in THP-1 cells; format: cell-based; parameters: IFN-β bioinhibitory activity: scale not given here; settings: 2'3'-cGAMP transfection, 18 hours, IFN-β ELISA
In short: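 PMA-primed (100 nM, overnight) THP-1 cells pretreated 1 h with compound at 0.001 to 1 μM (0.1% DMSO), then transfected with 0.12 μg/well 2′3′-cGAMP and cultured 18 hours. Supernatant IFN-β measured by ELISA; IC50 by regression against log concentration, normalised to cGAMP-only (100%) and unstimulated (0%) controls.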

hSTING inhibitory activity (human STING (hSTING)): * * *
Structure (SMILES): CN(C)n1c(Nc2c[nH]c3ccc(Cl)cc23)nc2cc(C(F)(F)F)cc(F)c21 [Embodiment 237, N2-(5-Chloro-1H-indol-3-yl)-7-fluoro-N1,N1-dimethyl-5-(trifluoromethyl)-1H-benzo[d] imidazole-1,2-diamine]
IFN-β bioinhibitory activity [1]: * *

hSTING inhibitory activity (human STING (hSTING)): * * *
Structure (SMILES): CCCn1c(Nc2c[nH]c3ccc(Cl)cc23)nc2cc(C(F)(F)F)cc(F)c21 [Embodiment 238, N-(5-Chloro-1H-indol-3-yl)-7-fluoro-1-propyl-5-(trifluoromethyl)-1H-benzo[d]imidazol-2-amine]
IFN-β bioinhibitory activity [1]: * *

hSTING inhibitory activity (human STING (hSTING)): * * *
Structure (SMILES): CCn1c(Nc2c[nH]c3ccc(Cl)cc23)nc2cc(C(F)(F)F)cc(F)c21 [Embodiment 240]
IFN-β bioinhibitory activity [1]: * *

hSTING inhibitory activity (human STING (hSTING)): * * *
Structure (SMILES): C#CCn1c(Nc2c[nH]c3ccc(Cl)cc23)nc2cc(C(F)(F)F)cc(F)c21 [Embodiment 241, N-(5-Chloro-1H-indol-3-yl)-7-fluoro-1-(prop-2-yn-1-yl)-5-(trifluoromethyl)-1H-benzo[d] imidazole-2-amine]
IFN-β bioinhibitory activity [1]: * *

hSTING inhibitory activity (human STING (hSTING)): * * *
Structure (SMILES): CC(C)n1c(Nc2c[nH]c3ccc(Cl)cc23)nc2cc(C(F)(F)F)cc(F)c21 [Embodiment 242, N-(5-Chloro-1H-indol-3-yl)-7-fluoro-1-isopropyl-5-(trifluoromethyl)-1H-benzo[d]imidazol-2-amine]
IFN-β bioinhibitory activity [1]: * *

hSTING inhibitory activity (human STING (hSTING)): * * *
Structure (SMILES): CCCn1c(Nc2c[nH]c3ccc(Cl)cc23)nc2cc(OC(F)(F)F)ccc21 [Embodiment 244, N-(5-Chloro-1H-indol-3-yl)-1-propyl-5-(trifluoromethoxy)-1H-benzo [d]imidazol-2-amine]
IFN-β bioinhibitory activity [1]: * *

The remaining lines, values behind:

Structure (SMILES): Cn1c(Nc2c[nH]c3ccc(Cl)cc23)nc2cc(C(F)(F)F)cc(F)c21 [Embodiment 225, N-(5-Chloro-1H-indol-3-yl)-7-fluoro-1-methyl-5-(trifluoromethyl)-1H-benzo[d]imidazol-2-amine]
hSTING inhibitory activity (human STING (hSTING)): * * *
IFN-β bioinhibitory activity [1]: * *

Structure (SMILES): FC(F)(F)c1ccc2c(c1)nc(Nc1c[nH]c3ccc(Cl)cc13)n2C1COC1 [Embodiment 226, N-(5-Chloro-1H-indol-3-yl)-1-(oxetan-3-yl)-5-(trifluoromethyl)-1H-benzo[d]imidazol-2-amine]
hSTING inhibitory activity (human STING (hSTING)): * *
IFN-β bioinhibitory activity [1]: * *

Structure (SMILES): CC#CCn1c(Nc2c[nH]c3ccc(Cl)cc23)nc2cc(C(F)(F)F)ccc21 [Embodiment 228, 1-(But-2-yn-1-yl)-N-(5-rolo-1H-indol-3-yl)-5-(trifluoromethyl)-1H-benzo[d]imidazol-2-amine]
hSTING inhibitory activity (human STING (hSTING)): * *
IFN-β bioinhibitory activity [1]: * *

Structure (SMILES): FC(F)(F)Oc1ccc2c(c1)nc(Nc1c[nH]c3ccc(Cl)cc13)n2C1CC1 [Embodiment 231, N-(5-Chloro-1H-indol-3-yl)-1-cyclopropyl-5-(trifluoromethoxy)-1H-benzo[d]imidazol-2-amine]
hSTING inhibitory activity (human STING (hSTING)): * * *
IFN-β bioinhibitory activity [1]: * *

Structure (SMILES): FC(F)(F)c1ccc2c(c1)nc(Nc1c[nH]c3ccc(I)cc13)n2C1CC1 [Embodiment 232, 1-Cyclopropyl-N-(5-iodo-1H-indol-3-yl)-5-(trifluoromethyl)-1H-benzo[d]imidazol-2-amine]
hSTING inhibitory activity (human STING (hSTING)): * *
IFN-β bioinhibitory activity [1]: * *

Structure (SMILES): Fc1cc(C(F)(F)F)cc2nc(Nc3c[nH]c4ccc(Cl)cc34)n(C3CC3)c12 [Embodiment 233, N-(5-Chloro-1H-indol-3-yl)-1-cyclopropyl-7-fluoro-5-(trifluoromethyl)-1H-benzo[d]imidazol-2-amine]
hSTING inhibitory activity (human STING (hSTING)): * * *
IFN-β bioinhibitory activity [1]: * *

Structure (SMILES): OCCn1c(Nc2c[nH]c3ccc(Cl)cc23)nc2cc(C(F)(F)F)cc(F)c21 [Embodiment 236, 2-{2-[(5-chloro-1H-indol-3-yl)amino]-7-fluoro-5-(trifluoromethyl)-1H-benzo[d]imidazol-1-yl}ethane-1-oar]
hSTING inhibitory activity (human STING (hSTING)): * * *
IFN-β bioinhibitory activity [1]: * *
